This passage reports IC50 results from US11795177B2, “Substituted quinoline analogs as aldehyde dehydrogenase 1A1 (ALDH1A1) inhibitors” (THE UNITED STATES OF AMERICA, AS REPRESENTED BY THE …, priority 2017, dated 2023).

Assay [1] addresses T1, ALDH1A1 enzyme (Homo sapiens, UniProt P00352).
T1 sequence (P00352 1-501): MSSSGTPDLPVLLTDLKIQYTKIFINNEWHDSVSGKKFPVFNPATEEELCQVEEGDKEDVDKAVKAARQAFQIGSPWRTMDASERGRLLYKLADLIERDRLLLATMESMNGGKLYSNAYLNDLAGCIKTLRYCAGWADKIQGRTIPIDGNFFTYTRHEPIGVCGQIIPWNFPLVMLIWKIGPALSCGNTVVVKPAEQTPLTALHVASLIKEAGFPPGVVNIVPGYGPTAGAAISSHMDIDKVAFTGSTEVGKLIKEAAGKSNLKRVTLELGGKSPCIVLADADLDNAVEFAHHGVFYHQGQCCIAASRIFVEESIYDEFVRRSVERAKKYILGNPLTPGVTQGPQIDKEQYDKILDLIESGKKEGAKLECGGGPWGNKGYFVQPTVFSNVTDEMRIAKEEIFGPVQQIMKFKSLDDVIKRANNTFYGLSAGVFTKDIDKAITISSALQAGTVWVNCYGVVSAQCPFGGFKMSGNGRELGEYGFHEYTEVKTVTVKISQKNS
The assay can be described thus: ALDH1A1 enzymatic assay (in vitro). The assay is classed as biochemical. The following applies: ALDH1A1 enzyme 20 nM, NAD+ 1 mM, propionaldehyde 80 μM; read-out: ALDH1A1 IC50. The procedure:
Example 358. ALDH1A1 Enzymatic Assay (In Vitro Assay)
3 μL of ALDH1A1 enzyme (final concentration 20 nM) or assay buffer (100 mM HEPES pH 7.5 with 0.01% Tween 20) were dispensed into a 1,536-well solid-bottom black plate (Greiner Bio One, Monroe, N.C.) followed by pin-tool transfer (23 nL) of candidate inhibitors (final concentration range 968 pM to 57.2 μM) and control (Bay 11-7085, final concentration range 1.31 nM to 2.86 μM). Samples were incubated (RT, protected from light) for 15 minutes followed by a 1 μL substrate addition of NAD^+ and Propionaldehyde (final concentrations of 1 mM and 80 μM, respectively). Plates were centrifuged at 1,000 rpm for 15 seconds, then read in kinetic mode on a ViewLux High-throughput CCD imager (Perkin-Elmer) equipped with standard UV fluorescence optics (340 nm excitation, 450 nm emission) for 10 minutes. The change in fluorescence intensity over the 10-minute reaction period was normalized against no-inhibitor and no-enzyme controls and the resulting percent inhibition data were fitted for biological activity.

Assay [2] has as its system MIA PaCa-2 cells. The assay can be described thus: MIA PaCa2 cell-based assay (1,536-well high-content imaging ALDEFLUOR assay). On the set-up: species or system human. The following applies: ALDEFLUOR BAAA substrate 500 nM, 30 minutes. The method in brief:
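High-content ALDEFLUOR imaging readout: BAA-retaining cells in FITC channel scored against Hoechst-counted nuclei. Before imaging, MIA PaCa-2 cells seeded at 1,000 per well received final 500 nM BAAA and 0.5 nM Hoechst with compounds in 16-point series (1.4 nM to 47.8 μM), 30 min, 37° C.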

Structures can show the parent of a compound that is named as a salt. Some results are limits rather than exact numbers.

On to “4-(4-cyano-4-phenylpiperidin-1-yl)-6-fluoro-N-((1R,3R)-3-hydroxycyclobutyl)quinoline-3-carboxamide [Cpd. 330]”, for which the IC50 in assay [1] and in assay [2] was less than 500 nM in each case.
On to `CS(=O)(=O)N1CCN(C(=O)c2cnc3ccc(F)cc3c2N2CCN(S(C)(=O)=O)CC2)CC1` [Cpd. 307, (6-fluoro-4-(4-(methylsulfonyl)piperazin-1-yl)quinolin-3-yl)(4-(methylsulfonyl)piperazin-1-yl)methanone], for which the IC50 (usually the point on the concentration scale where inhibition reaches its midpoint) in assay [1] is 1000 to 10000 nM; in assay [2] (Homo sapiens, 0.5 h) it was more than 10000 nM.
For `CS(=O)(=O)C1CCN(C(=O)c2cnc3ccc(Cl)cc3c2N2CCC(C#N)(c3ccccc3)CC2)CC1` [Cpd. 310, 1-(6-chloro-3-(4-(methylsulfonyl)piperidine-1-carbonyl)quinolin-4-yl)-4-phenylpiperidine-4-carbonitrile] the same measures were less than 500 nM and less than 500 nM.
As to `CN(C)C(=O)N1CCN(C(=O)c2cnc3ccc(Cl)cc3c2N2CCC(C#N)(c3ccccc3)CC2)CC1` [Cpd. 312, 4-(6-chloro-4-(4-cyano-4-phenylpiperidin-1-yl)quinoline-3-carbonyl)-N,N-dimethylpiperazine-1-carboxamide], the IC50 in assay [1] is less than 500 nM; in assay [2] (Homo sapiens, 0.5 h) it was less than 500 nM.
Consider `CN(C)S(=O)(=O)N1CCN(C(=O)c2cnc3ccc(Cl)cc3c2N2CCC(C#N)(c3ccccc3)CC2)CC1` [Cpd. 314, 4-(6-chloro-4-(4-cyano-4-phenylpiperidin-1-yl)quinoline-3-carbonyl)-N,N-dimethylpiperazine-1-sulfonamide], for which the IC50 in assay [1] was less than 500 nM; in assay [2] (Homo sapiens, 0.5 h) it was less than 500 nM.
Consider `N#CC1(c2ccccc2)CCN(c2c(C(=O)N[C@H]3CC[C@H](O)CC3)cnc3ccc(F)cc23)CC1` [Cpd. 325, 4-(4-cyano-4-phenylpiperidin-1-yl)-6-fluoro-N-((1R,4R)-4-hydroxycyclohexyl)quinoline-3-carboxamide], for which the concentration for half-maximal inhibition (IC50) is less than 500 nM in assay [1] and less than 500 nM in assay [2] (Homo sapiens, 0.5 h).
With `N#CC1(c2ccccc2)CCN(c2c(C(=O)N3CC(O)C3)cnc3ccc(F)cc23)CC1` [Cpd. 326, 1-(6-fluoro-3-(3-hydroxyazetidine-1-carbonyl)quinolin-4-yl)-4-phenylpiperidine-4-carbonitrile], the IC50 in assay [1] is less than 500 nM; in assay [2] (Homo sapiens, 0.5 h), 1000 to 10000 nM.
For `CNC(=O)C1CCN(C(=O)c2cnc3ccc(F)cc3c2N2CCC(C#N)(c3ccccc3)CC2)CC1` [Cpd. 327, 1-(4-(4-cyano-4-phenylpiperidin-1-yl)-6-fluoroquinoline-3-carbonyl)-N-methylpiperidine-4-carboxamide] the same measures were less than 500 nM and less than 500 nM.
For `N#CC1(c2ccccc2)CCN(c2c(C(=O)N3CC4(C3)CS(=O)(=O)C4)cnc3ccc(F)cc23)CC1` [Cpd. 328, 1-(3-(2,2-dioxido-2-thia-6-azaspiro[3.3]heptane-6-carbonyl)-6-fluoroquinolin-4-yl)-4-phenylpiperidine-4-carbonitrile] the same measures were less than 500 nM and less than 500 nM.
Consider `N#CC1(c2ccccc2)CCN(c2c(C(=O)N3CC4(CC(O)C4)C3)cnc3ccc(F)cc23)CC1` [Cpd. 329, 1-(6-fluoro-3-(6-hydroxy-2-azaspiro[3.3]heptane-2-carbonyl)quinolin-4-yl)-4-phenylpiperidine-4-carbonitrile], for which the half-maximal inhibitory concentration (IC50) was less than 500 nM in assay [1] and less than 500 nM in assay [2] (Homo sapiens, 0.5 h).
`N#CC1(c2ccccc2)CCN(c2c(C(=O)N3CCC(O)CC3)cnc3ccc(F)cc23)CC1` [Cpd. 331, 1-(6-fluoro-3-(4-hydroxypiperidine-1-carbonyl)quinolin-4-yl)-4-phenylpiperidine-4-carbonitrile]: the IC50 in assay [1] was less than 500 nM; in assay [2] (Homo sapiens, 0.5 h) it was 500 to 1000 nM.
For `N#CC1(c2ccc(-c3c(C(=O)N4CC5(C4)CS(=O)(=O)C5)cnc4ccc(F)cc34)cc2)CC1` [Cpd. 332, 1-(4-(3-(2,2-dioxido-2-thia-6-azaspiro[3.3]heptane-6-carbonyl)-6-fluoroquinolin-4-yl)phenyl)cyclopropane-1-carbonitrile] the same measures were less than 500 nM and 1000 to 10000 nM.
For `CNC(=O)C1CCN(C(=O)c2cnc3ccc(F)cc3c2-c2ccc(C3(C#N)CC3)cc2)CC1` [Cpd. 333, 1-(4-(4-(1-cyanocyclopropyl)phenyl)-6-fluoroquinoline-3-carbonyl)-N-methylpiperidine-4-carboxamide] the same measures were less than 500 nM and less than 500 nM.
With `N#CC1(c2ccc(-c3c(C(=O)N4CC(O)C4)cnc4ccc(F)cc34)cc2)CC1` [Cpd. 334, 1-(4-(6-fluoro-3-(3-hydroxyazetidine-1-carbonyl)quinolin-4-yl)phenyl)cyclopropane-1-carbonitrile], the IC50 is 1000 to 10000 nM in assay [1] and more than 10000 nM in assay [2] (Homo sapiens, 0.5 h).
With `N#CC1(c2ccc(-c3c(C(=O)N4CC5(CC(O)C5)C4)cnc4ccc(F)cc34)cc2)CC1` [Cpd. 335, 1-(4-(6-fluoro-3-(6-hydroxy-2-azaspiro[3.3]heptane-2-carbonyl)quinolin-4-yl)phenyl)cyclopropane-1-carbonitrile], the IC50 in assay [1] was less than 500 nM; in assay [2] (Homo sapiens, 0.5 h) it was 1000 to 10000 nM.
For `N#CC1(c2ccc(-c3c(C(=O)N[C@H]4C[C@H](O)C4)cnc4ccc(F)cc34)cc2)CC1` [Cpd. 336, 4-(4-(1-cyanocyclopropyl)phenyl)-6-fluoro-N-((1R,3R)-3-hydroxycyclobutyl)quinoline-3-carboxamide], the IC50 in assay [1] was less than 500 nM; in assay [2] (Homo sapiens, 0.5 h) it was 500 to 1000 nM.
For `N#CC1(c2ccc(-c3c(C(=O)N4CCC(O)CC4)cnc4ccc(F)cc34)cc2)CC1` [Cpd. 337, 1-(4-(6-fluoro-3-(4-hydroxypiperidine-1-carbonyl)quinolin-4-yl)phenyl)cyclopropane-1-carbonitrile] the same measures were less than 500 nM and 1000 to 10000 nM.
As for `COc1ccc2ncc(C(=O)NC3CCN(C)CC3)c(N3CCC4(CC3)OCCO4)c2c1` [Example 16, 6-methoxy-N-(1-methylpiperidin-4-yl)-4-(1,4-dioxa-8-azaspiro[4.5]decan-8-yl)quinoline-3-carboxamide, TFA], in assay [1], the half-inhibitory concentration (IC50) fell in the range of 1000 to 10000 nM.
On the same count and under the same terms, with `COc1ccc2ncc(C(=O)N3CCN(C(=O)C4CC4)CC3)c(N3CCN(c4ccncc4)CC3)c2c1` [Example 20, (4-(cyclopropanecarbonyl)piperazin-1-yl)(6-methoxy-4-(4-(pyridin-4-yl)piperazin-1-yl)quinolin-3-yl)methanone, TFA] the figure was more than 10000 nM; with `COc1ccc2ncc(C(=O)N3CCN(C(=O)C4CC4)CC3)c(NC3CCN(C)CC3)c2c1` [Example 21, (4-(cyclopropanecarbonyl)piperazin-1-yl)(6-methoxy-4-((1-methylpiperidin-4-yl)amino)quinolin-3-yl)methanone, TFA], more than 10000 nM; with `COc1ccc2ncc(C(=O)N3CCN(C(=O)C4CC4)CC3)c(NC3CCC3)c2c1` [Example 22, (4-(cyclobutylamino)-6-methoxyquinolin-3-yl)(4-(cyclopropanecarbonyl)piperazin-1-yl)methanone, TFA], more than 10000 nM.
On the same count and under the same terms, with `COc1ccc2ncc(C(=O)N3CCN(C(=O)C4CC4)CC3)c(N3C[C@@H](C)O[C@@H](C)C3)c2c1` [Example 34, (4-(cyclopropanecarbonyl)piperazin-1-yl)(44(2S*,6R*)-2,6-dimethylmorpholino)-6-methoxyquinolin-3-yl)methanone] the figure was more than 10000 nM; with `COc1ccc2ncc(C(=O)N3CCN(C(=O)C4CC4)CC3)c(-n3cc(C)cn3)c2c1` [Example 35, (4-(cyclopropanecarbonyl)piperazin-1-yl)(6-methoxy-4-(4-methyl-1H-pyrazol-1-yl)quinolin-3-yl)methanone], more than 10000 nM.
In the case of `COc1ccc2ncc(C(=O)N3CCN(C(=O)C4CC4)CC3)c(-c3cnn(C)c3)c2c1` [Example 41, (4-(cyclopropanecarbonyl)piperazin-1-yl)(6-methoxy-4-(1-methyl-1H-pyrazol-4-yl)quinolin-3-yl)methanone], the IC50 in assay [1] was more than 10000 nM.
Still for that read-out and setting: as for `C[C@@H]1CN(c2c(C(=O)N3CCN(C(=O)C4CC4)CC3)cnc3ccc(F)cc23)C[C@H](C)O1` [Example 60, (4-(cyclopropanecarbonyl)piperazin-1-yl)(44(2S*,6R*)-2,6-dimethylmorpholino)-6-fluoroquinolin-3-yl)methanone], the figure is more than 10000 nM.
